Source: patent publication US12180193B2, “Accelerating fibrosarcoma protein degrading compounds and associated methods of use” (Arvinas Operations, Inc., priority 2020, dated 2024)

Legend:
BRAF G466V = target: T1, BRAF G466V (Homo sapiens, UniProt P15056, G466V); experiment: Cellular assay of target protein degradation, T-Rex 293 cells stably transfected with HA-BRAF G466V (HA immunofluorescence, high content imaging); format: cell-based; details: T-Rex 293 HA-BRAF G466V; for DC50: half maximal degradation, read-out: BRaf G466V DC50; for Dmax: maximum degradation observed
T1 construct: expressed in transfected cells
T1 sequence (P15056 whole entry G466V): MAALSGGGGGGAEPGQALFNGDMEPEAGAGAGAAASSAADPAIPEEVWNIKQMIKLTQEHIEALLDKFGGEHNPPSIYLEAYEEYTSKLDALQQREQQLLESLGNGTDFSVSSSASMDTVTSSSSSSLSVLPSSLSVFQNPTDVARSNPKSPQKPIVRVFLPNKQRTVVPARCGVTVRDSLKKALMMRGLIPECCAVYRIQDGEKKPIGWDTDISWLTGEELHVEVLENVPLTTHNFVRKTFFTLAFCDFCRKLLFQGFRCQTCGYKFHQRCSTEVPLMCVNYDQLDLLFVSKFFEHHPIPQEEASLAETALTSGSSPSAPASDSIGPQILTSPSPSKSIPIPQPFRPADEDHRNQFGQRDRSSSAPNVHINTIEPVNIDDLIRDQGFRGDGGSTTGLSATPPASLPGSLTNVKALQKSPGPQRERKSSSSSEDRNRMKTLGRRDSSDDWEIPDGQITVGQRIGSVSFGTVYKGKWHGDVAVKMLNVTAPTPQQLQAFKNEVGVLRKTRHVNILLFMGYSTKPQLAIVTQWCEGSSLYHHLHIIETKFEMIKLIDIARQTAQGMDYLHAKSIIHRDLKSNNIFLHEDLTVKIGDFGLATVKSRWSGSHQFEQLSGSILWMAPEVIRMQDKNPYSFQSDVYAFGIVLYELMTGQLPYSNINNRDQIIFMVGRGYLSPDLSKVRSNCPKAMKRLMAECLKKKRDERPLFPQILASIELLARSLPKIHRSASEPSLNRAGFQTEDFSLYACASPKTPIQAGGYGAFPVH
Outline: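 Dose range spans 30 nM to 3 pM (0.1% DMSO) over 24 hours at 37° C, in cells induced with 0.75 ng/mL doxycycline. Fixed cells are probed with anti-HA antibody overnight at 4° C, then imaged; half-maximal degradation and maximum degradation are derived.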

BRAF V600E = target: T2, BRAF V600E (Homo sapiens, UniProt P15056, V600E); experiment: Cellular assay of target protein degradation, T-Rex 293 cells stably transfected with HA-BRAF_V600E (HA immunofluorescence, high content imaging); format: cell-based; details: T-Rex 293 HA-BRAF V600E; for DC50: half maximal degradation, read-out: BRaf V600E DC50; for Dmax: maximum degradation observed
T2 construct: expressed in transfected cells
T2 sequence (P15056 whole entry V600E): as the sequence (P15056 whole entry G466V) above, with V466G, V600E counted along it
Outline: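 Degradation of the HA-tagged construct is measured after 24 h treatment at 37 °C across 1 μM to 0.1 nM in 0.1% DMSO, in doxycycline-induced (1 ng/mL) cells. DC50 and Dmax come from HA fluorescence imaging.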

Row | SMILES | DC50 (BRAF G466V) | Dmax (BRAF G466V) | DC50 (BRAF V600E) | Dmax (BRAF V600E)
1 | CN(CC1CCN(c2ccc3c(c2)CN(C2CCC(=O)NC2=O)C3=O)CC1)[C@H]1C[C@@H](Oc2ccc(-c3cnc4[nH]cc(C(=O)c5c(F)ccc(NS(=O)(=O)N6CC[C@@H](F)C6)c5F)c4c3)cc2)C1 (stereo partly drawn) [Compound 167, (3R)-N-[2,4-difluoro-3-(5-{4-[(1s,3s)-3-[({1-[2-(2,6-dioxopiperidin-3-yl)-1-oxo-2,3-dihydro-1H-isoindol-5-yl]piperidin-4-yl}methyl)(methyl)amino]cyclobutoxy)phe-nyl}-1H-pyrrolo[2,3-b]pyridine-3-carbonyl)phenyl]-3-fluoropyrrolidine-1-sulfonamide] | 1 to 10 nM | 35 to 70% | 5 to 50 nM | 35 to 70%
2 | CN1C(=O)CCC(N2Cc3cc(C4CCN(CC5CCN(c6ccc(-c7cnc8[nH]cc(C(=O)c9c(F)ccc(NS(=O)(=O)N%10CC[C@@H](F)C%10)c9F)c8c7)cc6)CC5)CC4)ccc3C2=O)C1=O (stereo partly drawn) [Compound 169, (3R)-N-[2,4-difluoro-3-(5-{4-[4-({4-[2-(1-methyl-2,6-dioxopiperidin-3-yl)-1-oxo-2,3-dihydro-1H-isoindol-5-yl]piperidin-1-yl}methyl)piperidin-1-yl]phenyl}-1H-pyrrolo[2,3-b]pyridine-3-carbonyl)phenyl]-3-fluoropyrrolidine-1-sulfonamide] | > 30 nM | – | > 500 nM | –
3 | O=C1CCC(N2Cc3cc(N4CCC(CN5CCC(C6(c7ccc(-c8cnc9[nH]cc(C(=O)c%10c(F)ccc(NS(=O)(=O)N%11CC[C@@H](F)C%11)c%10F)c9c8)cc7)CC6)CC5)CC4)ccc3C2=O)C(=O)N1 (stereo partly drawn) [Compound 174, (3R)-N-{3-[5-(4-{1-[1-({1-[2-(2,6-dioxopiperidin-3-yl)-1-oxo-2,3-dihydro-1H-isoindol-5-yl]piperidin-4-yl}methyl)piperidin-4-yl]cyclopropyl}phenyl)-1H-pyrrolo[2,3-b]pyridine-3-carbonyl]-2,4-difluorophenyl}-3-fluoropyrrolidine-1-sulfonamide] | 1 to 10 nM | > 70% | 5 to 50 nM | < 35%
4 | CC1(c2ccc(C3CCN(CC4CCN(c5ccc(-c6cnc7[nH]cc(C(=O)c8c(F)ccc(NS(=O)(=O)N9CC[C@@H](F)C9)c8F)c7c6)cc5)CC4)CC3)cc2F)CCC(=O)NC1=O (stereo partly drawn) [Compound 176, (3R)-N-[2,4-difluoro-3-(5-{4-[4-({4-[3-fluoro-4-(3-methyl-2,6-dioxopiperidin-3-yl)phenyl]piperidin-1-yl}methyl)piperidin-1-yl]phenyl}-1H-pyrrolo[2,3-b]pyridine-3-carbonyl)phenyl]-3-fluoropyrrolidine-1-sulfonamide] | 1 to 10 nM | 35 to 70% | 5 to 50 nM | < 35%
5 | O=C1CCC(c2ccc(C3CCN(CCC4CCN(c5ccc(-c6cnc7[nH]cc(C(=O)c8c(F)ccc(NS(=O)(=O)N9CC[C@@H](F)C9)c8F)c7c6)cc5)CC4)CC3)cc2F)C(=O)N1 (stereo partly drawn) [Compound 178, (3R)-N-[3-(5-{4-[4-(2-{4-[4-(2,6-dioxopiperidin-3-yl)-3-fluorophenyl]piperidin-1-yl}ethyl)piperidin-1-yl]phenyl}-1H-pyrrolo[2,3-b]pyridine-3-carbonyl)-2,4-difluorophenyl]-3-fluoropyrrolidine-1-sulfonamide] | 1 to 10 nM | > 70% | 5 to 50 nM | < 35%
6 | O=C1CCC(N2Cc3cc(C4CCN(C[C@@H]5[C@H]6CN(c7ccc(-c8cnc9[nH]cc(C(=O)c%10c(F)ccc(NS(=O)(=O)N%11CC[C@@H](F)C%11)c%10F)c9c8)cc7)C[C@@H]56)CC4)ccc3C2=O)C(=O)N1 (stereo partly drawn) [Compound 179, (3R)-N-[3-(5-{4-[(1R,5S,6S)-6-({4-[2-(2,6-dioxopiperidin-3-yl)-1-oxo-2,3-dihydro-1H-isoindol-5-yl]piperidin-1-yl}methyl)-3-azabicyclo[3.1.0]hexan-3-yl]phenyl}-1H-pyrrolo[2,3-b]pyridine-3-carbonyl)-2,4-difluorophenyl]-3-fluoropyrrolidine-1-sulfonamide] | 1 to 10 nM | > 70% | 5 to 50 nM | 35 to 70%
7 | O=C1CCC(N2Cc3cc(C4CCN(C[C@@H]5C[C@H]6CC[C@@H](C5)N6c5ccc(-c6cnc7[nH]cc(C(=O)c8c(F)ccc(NS(=O)(=O)N9CC[C@@H](F)C9)c8F)c7c6)cc5)CC4)ccc3C2=O)C(=O)N1 (stereo partly drawn) [Compound 180, (3R)-N-[3-(5-{4-[(1R,3S,5S)-3-({4-[2-(2,6-dioxopiperidin-3-yl)-1-oxo-2,3-dihydro-1H-isoindol-5-yl]piperidin-1-yl}methyl)-8-azabicyclo[3.2.1]octan-8-yl]phenyl}-1H-pyrrolo[2,3-b]pyridine-3-carbonyl)-2,4-difluorophenyl]-3-fluoropyrrolidine-1-sulfonamide] | 1 to 10 nM | > 70% | 5 to 50 nM | 35 to 70%

Continued, values first:

Row | DC50 (BRAF G466V) | Dmax (BRAF G466V) | DC50 (BRAF V600E) | Dmax (BRAF V600E) | SMILES
8 | 1 to 10 nM | > 70% | 5 to 50 nM | < 35% | O=C1CCC(c2ccc(C3CCN(CC4CCN(c5ccc(-c6cnc7[nH]cc(C(=O)c8c(F)ccc(NS(=O)(=O)N9CC[C@@H](F)C9)c8F)c7c6)cc5)CC4)CC3)cc2F)C(=O)N1 (stereo partly drawn) [Compound 168, (3R)-N-[3-(5-{4-[4-({4-[4-(2,6-dioxopiperidin-3-yl)-3-fluorophenyl]piperidin-1-yl}methyl)piperidin-1-yl]phenyl}-1H-pyrrolo[2,3-b]pyridine-3-carbonyl)-2,4-difluorophenyl]-3-fluoropyrrolidine-1-sulfonamide]
9 | 1 to 10 nM | > 70% | 50 to 500 nM | 35 to 70% | O=C1CC[C@H](N2Cc3cc(C[C@H](O)CN4CC5(C4)CN(c4ccc(-c6cnc7[nH]cc(C(=O)c8c(F)ccc(NS(=O)(=O)N9CC[C@@H](F)C9)c8F)c7c6)cc4)C5)ccc3C2=O)C(=O)N1 [Compound 170, (3R)-N-{3-[5-(4-{6-[(2S)-3-{2-[(3S)-2,6-dioxopiperidin-3-yl]-1-oxo-2,3-dihydro-1H-isoindol-5-yl}-2-hydroxypropyl]-2,6-diazaspiro[3.3]heptan-2-yl}phenyl)-1H-pyrrolo[2,3-b]pyridine-3-carbonyl]-2,4-difluorophenyl}-3-fluoropyrrolidine-1-sulfonamide]
10 | 1 to 10 nM | > 70% | 5 to 50 nM | 35 to 70% | O=C1CC[C@H](N2Cc3cc(CC[C@H](O)CN4CC5(C4)CN(c4ccc(-c6cnc7[nH]cc(C(=O)c8c(F)ccc(NS(=O)(=O)N9CC[C@@H](F)C9)c8F)c7c6)cc4)C5)ccc3C2=O)C(=O)N1 [Compound 172, (3R)-N-{3-[5-(4-{6-[(2S)-4-{2-[(3S)-2,6-dioxopiperidin-3-yl]-1-oxo-2,3-dihydro-1H-isoindol-5-yl}-2-hydroxybutyl]-2,6-diazaspiro[3.3]heptan-2-yl}phenyl)-1H-pyrrolo[2,3-b]pyridine-3-carbonyl]-2,4-difluorophenyl}-3-fluoropyrrolidine-1-sulfonamide]
11 | 1 to 10 nM | > 70% | 5 to 50 nM | 35 to 70% | O=C1CC[C@@H](N2Cc3cc(CC[C@H](O)CN4CC5(C4)CN(c4ccc(-c6cnc7[nH]cc(C(=O)c8c(F)ccc(NS(=O)(=O)N9CC[C@@H](F)C9)c8F)c7c6)cc4)C5)ccc3C2=O)C(=O)N1 [Compound 173, (3R)-N-{3-[5-(4-{6-[(2S)-4-{2-[(3R)-2,6-dioxopiperidin-3-yl]-1-oxo-2,3-dihydro-1H-isoindol-5-yl}-2-hydroxybutyl]-2,6-diazaspiro[3.3]heptan-2-yl}phenyl)-1H-pyrrolo[2,3-b]pyridine-3-carbonyl]-2,4-difluorophenyl}-3-fluoropyrrolidine-1-sulfonamide]
12 | < 1 nM | > 70% | 5 to 50 nM | 35 to 70% | COc1cc(C2CCN(CC3CCN(c4ncc(-c5cnc6[nH]cc(C(=O)c7c(F)ccc(NS(=O)(=O)N8CC[C@@H](F)C8)c7F)c6c5)cn4)CC3)CC2)cc2c1C(=O)N(C1CCC(=O)NC1=O)C2 (stereo partly drawn) [Compound 175, (3R)-N-[3-(5-{2-[4-({4-[2-(2,6-dioxopiperidin-3-yl)-7-methoxy-1-oxo-2,3-dihydro-1H-isoindol-5-yl]piperidin-1-yl}methyl)piperidin-1-yl]pyrimidin-5-yl}-1H-pyrrolo[2,3-b]pyridine-3-carbonyl)-2,4-difluorophenyl]-3-fluoropyrrolidine-1-sulfonamide]
13 | < 1 nM | > 70% | < 5 nM | 35 to 70% | O=C1CCC(N2Cc3cc(C4CCN(CC5CCN(c6ccc(-c7cnc8[nH]cc(C(=O)c9c(F)ccc(NS(=O)(=O)N%10CCCC%10)c9F)c8c7)cc6)CC5)CC4)ccc3C2=O)C(=O)N1 (centres unmarked) [Compound 177, N-[3-(5-{4-[4-({4-[2-(2,6-dioxopiperidin-3-yl)-1-oxo-2,3-dihydro-1H-isoindol-5-yl]piperidin-1-yl}methyl)piperidin-1-yl]phenyl}-1H-pyrrolo[2,3-b]pyridine-3-carbonyl)-2,4-difluorophenyl]pyrrolidine-1-sulfonamide]
